This series relates to CCRIS mutagenicity, Ames/micronucleus/aberration tests. Kind of series: CCRIS mutagenicity studies.
Setting [1] is: Test System: AMES SALMONELLA TYPHIMURIUM, Strain/Indicator: TA100, Metabolic Activation: NONE, Method: PREINCUBATION
The mark [2] stands for this setting: Test System: AMES SALMONELLA TYPHIMURIUM, Strain/Indicator: TA100, Metabolic Activation: NONE, Method: STANDARD PLATE.
Setting [3] is: Test System: AMES SALMONELLA TYPHIMURIUM, Strain/Indicator: TA1535, Metabolic Activation: NONE, Method: PREINCUBATION
[4] abbreviates: Test System: AMES SALMONELLA TYPHIMURIUM, Strain/Indicator: TA1535, Metabolic Activation: NONE, Method: STANDARD PLATE.
[5] abbreviates: Test System: AMES SALMONELLA TYPHIMURIUM, Strain/Indicator: TA1537, Metabolic Activation: NONE, Method: PREINCUBATION
[6] abbreviates: Test System: AMES SALMONELLA TYPHIMURIUM, Strain/Indicator: TA1538, Metabolic Activation: NONE, Method: PREINCUBATION
The mark [7] stands for this setting: Test System: AMES SALMONELLA TYPHIMURIUM, Strain/Indicator: TA98, Metabolic Activation: NONE, Method: STANDARD PLATE.
[8] abbreviates: Test System: AMES SALMONELLA TYPHIMURIUM, Strain/Indicator: TA98, Metabolic Activation: RAT, LIVER, S-9, AROCLOR 1254, Method: STANDARD PLATE.
[9] abbreviates: Test System: AMES SALMONELLA TYPHIMURIUM, Strain/Indicator: TA100, Metabolic Activation: RAT, LIVER, S-9, AROCLOR 1254, Method: STANDARD PLATE.
The mark [10] stands for this setting: Test System: AMES SALMONELLA TYPHIMURIUM, Strain/Indicator: TA1535, Metabolic Activation: RAT, LIVER, S-9, AROCLOR 1254, Method: STANDARD PLATE.
[11] abbreviates: Test System: AMES SALMONELLA TYPHIMURIUM, Strain/Indicator: TA1537, Metabolic Activation: RAT, LIVER, S-9, AROCLOR 1254, Method: STANDARD PLATE.
The mark [12] stands for this setting: Test System: AMES SALMONELLA TYPHIMURIUM, Strain/Indicator: TA100, Metabolic Activation: S-9, Method: STANDARD PLATE.

Calls of active or inactive are those of the source. The rule behind the calls is not given here.

With `Clc1ccc(CCC2CO2)cc1` (stereo not drawn), the mutagenic call is “inactive; negative” under setting [1], “active; positive” under setting [2], “inactive; negative” under setting [3] and “active; positive” under setting [4].

Regarding `C[n+]1c2ccccc2c(N)c2ccccc21`, the mutagenic call by setting is: under setting [3], “active; positive”; (Test System: AMES SALMONELLA TYPHIMURIUM, Strain/Indicator: TA1535, Metabolic Activation: RAT, LIVER, S-9, TETRACHLOROBIPHENYL, Method: PREINCUBATION) “active; positive”; under setting [5], “active; positive”; (Test System: AMES SALMONELLA TYPHIMURIUM, Strain/Indicator: TA1537, Metabolic Activation: RAT, LIVER, S-9, TETRACHLOROBIPHENYL, Method: PREINCUBATION) “active; positive”; under setting [6], “inactive; negative”; (Test System: AMES SALMONELLA TYPHIMURIUM, Strain/Indicator: TA1538, Metabolic Activation: RAT, LIVER, S-9, TETRACHLOROBIPHENYL, Method: PREINCUBATION) “inactive; negative”. The mutagenic call was “active; positive” (Test System: AMES SALMONELLA TYPHIMURIUM, Strain/Indicator: TA1977, Metabolic Activation: NONE, Method: PREINCUBATION) and “active; positive” (Test System: AMES SALMONELLA TYPHIMURIUM, Strain/Indicator: TA1977, Metabolic Activation: RAT, LIVER, S-9, TETRACHLOROBIPHENYL, Method: PREINCUBATION).

Turning to `C(COCC1CO1)OCC1CO1` (stereo not drawn), the mutagenic call reads like this: under setting [2], “active; positive”; under setting [4], “active; positive”.

With `O=C(c1ccccc1)n1ncc(Cl)c(Cl)c1=O`, the mutagenic call is “inactive; negative” under setting [7]; “inactive; negative” under setting [8]; “inactive; negative” under setting [2]; “inactive; negative” under setting [9]; “inactive; negative” under setting [4]; “inactive; negative” under setting [10]. Besides, the mutagenic call was “inactive; negative” (Test System: AMES SALMONELLA TYPHIMURIUM, Strain/Indicator: TA1537, Metabolic Activation: NONE, Method: STANDARD PLATE) and “inactive; negative” under setting [11].

`NC(=Nc1ccccc1)Nc1ccccc1`: the mutagenic call is “active; positive” (Test System: AMES SALMONELLA TYPHIMURIUM, Strain/Indicator: TA98, Metabolic Activation: HAMSTER, LIVER, S-9, AROCLOR 1254, Method: STANDARD PLATE); “inactive; negative” (Test System: AMES SALMONELLA TYPHIMURIUM, Strain/Indicator: TA98, Metabolic Activation: NONE, Method: PREINCUBATION); “inactive; negative” under setting [7]; “inactive; negative” (Test System: AMES SALMONELLA TYPHIMURIUM, Strain/Indicator: TA98, Metabolic Activation: RAT LIVER S-9, PHENOBARBITAL AND BETA-NAPHTHOFLAVONE, Method: PREINCUBATION); “inactive; negative” under setting [8]; “inactive; negative” (Test System: AMES SALMONELLA TYPHIMURIUM, Strain/Indicator: TA98, Metabolic Activation: S-9, Method: STANDARD PLATE). The mutagenic call is “active; positive” (Test System: AMES SALMONELLA TYPHIMURIUM, Strain/Indicator: TA100, Metabolic Activation: HAMSTER, LIVER, S-9, AROCLOR 1254, Method: STANDARD PLATE); “inactive; negative” under setting [1]; “inactive; negative” under setting [2]; “inactive; negative” (Test System: AMES SALMONELLA TYPHIMURIUM, Strain/Indicator: TA100, Metabolic Activation: RAT LIVER S-9, PHENOBARBITAL AND BETA-NAPHTHOFLAVONE, Method: PREINCUBATION); “inactive; negative” under setting [9]; “inactive; negative” under setting [12]. For the same compound, the mutagenic call runs as follows: (Test System: AMES SALMONELLA TYPHIMURIUM, Strain/Indicator: TA1535, Metabolic Activation: HAMSTER, LIVER, S-9, AROCLOR 1254, Method: STANDARD PLATE) “inactive; negative”; under setting [3], “inactive; negative”; under setting [4], “inactive; negative”; (Test System: AMES SALMONELLA TYPHIMURIUM, Strain/Indicator: TA1535, Metabolic Activation: RAT LIVER S-9, PHENOBARBITAL AND BETA-NAPHTHOFLAVONE, Method: PREINCUBATION) “inactive; negative”; under setting [10], “inactive; negative”; (Test System: AMES SALMONELLA TYPHIMURIUM, Strain/Indicator: TA1537, Metabolic Activation: HAMSTER, LIVER, S-9, AROCLOR 1254, Method: STANDARD PLATE) “inactive; negative”. For the same compound, the mutagenic call was “inactive; negative” under setting [5]; “inactive; negative” (Test System: AMES SALMONELLA TYPHIMURIUM, Strain/Indicator: TA1537, Metabolic Activation: RAT LIVER S-9, PHENOBARBITAL AND BETA-NAPHTHOFLAVONE, Method: PREINCUBATION); “inactive; negative” under setting [11]; “inactive; negative” (Test System: AMES SALMONELLA TYPHIMURIUM, Strain/Indicator: TA1538, Metabolic Activation: HAMSTER, LIVER, S-9, AROCLOR 1254, Method: STANDARD PLATE); “inactive; negative” under setting [6]; “inactive; negative” (Test System: AMES SALMONELLA TYPHIMURIUM, Strain/Indicator: TA1538, Metabolic Activation: NONE, Method: STANDARD PLATE). Moreover, the mutagenic call is “inactive; negative” (Test System: AMES SALMONELLA TYPHIMURIUM, Strain/Indicator: TA1538, Metabolic Activation: RAT LIVER S-9, PHENOBARBITAL AND BETA-NAPHTHOFLAVONE, Method: PREINCUBATION); “inactive; negative” (Test System: AMES SALMONELLA TYPHIMURIUM, Strain/Indicator: TA1538, Metabolic Activation: RAT, LIVER, S-9, AROCLOR 1254, Method: STANDARD PLATE); “inactive; negative” (Test System: E.COLI, Strain/Indicator: WP2UVRA, Metabolic Activation: NONE, Method: PREINCUBATION); “inactive; negative” (Test System: E.COLI, Strain/Indicator: WP2UVRA, Metabolic Activation: RAT LIVER S-9, PHENOBARBITAL AND BETA-NAPHTHOFLAVONE, Method: PREINCUBATION); “inactive; negative. reevaluation of results: negative” (Test System: MOUSE LYMPHOMA, Strain/Indicator: L5178Y (TK+/TK-), Metabolic Activation: NONE, Method: SUSPENSION/PLATE); “inactive; negative. reevaluation of results: inconclusive” (Test System: MOUSE LYMPHOMA, Strain/Indicator: L5178Y (TK+/TK-), Metabolic Activation: RAT, LIVER, S-9, AROCLOR 1254, Method: SUSPENSION/PLATE).

Regarding `Nc1ccc2sncc2c1`, the mutagenic call under setting [12] was “active; positive”.

The record behind these values is PubChem BioAssay AID1259407 (Chemical Carcinogenesis Research Information System (CCRIS), 2018).
